What was measured:
Format in all cases: cell-based
Geotrichum candidum = test: Liquid fungal growth assay in 96-well plates, Geotrichum candidum; details: combinations 1:1 w/w
Description: For each 96 well plate, three separate additions were made to each well. First, 100 μl of potato dextrose broth w/100 ppm chloramphenicol was added. […] Finally, 50 μl of DI H2O was added to the blank plate (the plate intended to be left blank for an OD reference) OR 50 μl of 10^5 fungal inoculum was added to each well in its respective plate(s). […] The plates were then covered with lids and placed at 20° C. for 3 days of incubation. After the incubation period, the growth of each well in each plate was rated by optical density at 600 nm using a PerkinElmer Victor plate-reader using the setting “MIC Settings @600 (0.1 s)” that can be found in the Wallac® Victor® software. The results were also roughly assessed visually as cloudy wells (partial growth) appearing in the dilution series where the sample fell off in activity. After an OD was obtained for each well, the relative growth was determined by the following calculation: [(Treatment w/Bacteria)-(Treatment w/o Bacteria)/(Diluent Control w/Bacteria)-(Diluent Control w/o Bacteria)]×100. The positive control wells for bacterial growth were considered acceptable if the average and standard deviation of the OD readings at 600 nm were well above the range of the non-inoculated OD reference wells. […] Synergy was then determined by Gowing's Equation, set forth above. […]

[1] = test system: Geotrichum citri-aurantii; test: Liquid fungal growth assay in 96-well plates, Geotrichum citri-aurantii; details: each component 2.23 ppm final, combinations 1:1 w/w
Description: For each 96 well plate, three separate additions were made to each well. First, 100 μl of potato dextrose broth w/100 ppm chloramphenicol was added. Then 25 μl of each sample (lipopeptides, natamycin, or combo from dilution plate) was supplemented. Finally, 50 μl of DI H2O was added to the blank plate (the plate intended to be left blank for an OD reference) OR 50 μl of 10^5 fungal inoculum was added to each well in its respective plate(s). […] The plates were then covered with lids and placed at 20° C. for 3 days of incubation. After the incubation period, the growth of each well in each plate was rated by optical density at 600 nm using a PerkinElmer Victor plate-reader using the setting “MIC Settings @600 (0.1 s)” that can be found in the Wallac® Victor® software. The results were also roughly assessed visually as cloudy wells (partial growth) appearing in the dilution series where the sample fell off in activity. After an OD was obtained for each well, the relative growth was determined by the following calculation: [(Treatment w/Bacteria)-(Treatment w/o Bacteria)/(Diluent Control w/Bacteria)-(Diluent Control w/o Bacteria)]×100. The positive control wells for bacterial growth were considered acceptable if the average and standard deviation of the OD readings at 600 nm were well above the range of the non-inoculated OD reference wells. […]

Saccharomyces cerevisiae = test: Liquid fungal growth assay in 96-well plates (YPD), Saccharomyces cerevisiae; details: combinations 1:1 w/w
[2] = test system: Saccharomyces cerevisiae wild-type strain BY4742; test: Saccharomyces cerevisiae liquid culture growth (OD vs untreated control), Example 1; details: 16 hours at 30° C.
Description: A combination of lipopeptides and natamycin was tested for efficacy against Saccharomyces cerevisiae, which is generally recognized as a model organism for testing activity against fungi and which is closely related to Candida. See Smits, G J, et al., “Stress Tolerance in Fungi—To Kill a Spoilage Yeast,” Current Opin Biotechnol., 16(2): 225-30, (2005) and Castrillo, J I, et al., “Yeast as a Touchstone in Post-Genomic Research: Strategies for Integrative Analysis in Functional Genomics,” J Biochem Mol Biol., 37(1): 93-106, (2004).
Saccharomyces cerevisiae wild-type strain BY4742 was grown in liquid YPD in the presence of: (1) natamycin (Haorui Pharma-Chem Inc), (2) the above-described lipopeptide extract, (3) natamycin+lipopeptide extract, and 4) no lipopeptides or natamycin (control). The initial concentration of natamycin before being added to the liquid culture was 1 ppm and the initial concentration of lipopeptide extract was 15 ppm. Final concentration of natamycin in the liquid culture was 0.08 ppm and final concentration of lipopeptide extract was 1.12 ppm, such that the weight to weight ratio of natamycin to lipopeptide in the sample containing both was 1:14. […]
Gowing's Equation was applied, as follows, to determine synergism of lipopeptides with natamycin. […] Thus, X and Y are calculated by subtracting the amount of growth on a treated plate from 100, as shown below. […]

Penicillium expansum = test: Liquid fungal growth assay in 96-well plates, Penicillium expansum
Description: The effect of (i) natamycin (Haorui Pharma-Chem. Inc.), (ii) a crude extract of lipopeptides from Bacillus subtilis QST713 (prepared as described in Example 1), and (iii) a combination of natamycin and a crude extract of lipopeptides on Penicillium expansum was investigated. A liquid fungal growth assay was performed in 96-well plates to determine whether the combination of lipopeptides and natamycin is synergistic in inhibiting fungal growth. All procedures were conducted aseptically.
For each 96 well plate, three separate additions were made to each well. First, 100 μl of potato dextrose broth w/100 ppm chloramphenicol was added. […]
After the incubation period, the growth of each well in each plate was rated by optical density at 600 nm using a PerkinElmer Victor plate-reader using the setting “MIC Settings @600 (0.1 s)” that can be found in the Wallac® Victor® software. The results were also roughly assessed visually as cloudy wells (partial growth) appearing in the dilution series where the sample fell off in activity.
After an OD was obtained for each well, the relative growth was determined by the following calculation: [(Treatment w/Bacteria)−(Treatment w/o Bacteria)/(Diluent Control w/Bacteria)−(Diluent Control w/o Bacteria)]×100. […]
Synergy was then determined by Gowing's Equation, set forth above. […]

Structure (SMILES)	% of Growth of the Given Compound(s) at 1.12 ppm (Geotrichum candidum; nystatin series, each component 1.12 ppm final) [%]	% of Growth of the Given Compound(s) at 2.23 ppm ([1]; nystatin series) [%]	% of Growth of the Given Compound(s) at 0.56 ppm (Saccharomyces cerevisiae; nystatin series, each component 0.56 ppm final) [%]	inhibition at 0.08 ppm ([2]; Saccharomyces cerevisiae, natamycin 0.08 ppm, lipopeptide extract 1.12 ppm final, read-out: growth inhibition (X, Y, Eob = 100 − growth)) [%]	growth (OD) normalized to untreated control set at 100% ([2]; natamycin 0.08 ppm final, lipopeptide extract 1.12 ppm final (1:14 w/w), liquid YPD) [%]	Percent Growth (Penicillium expansum; 1.1 ppm final of each component, 3 days at 20° C., OD 600 nm) [%]	% of Growth of the Given Compound(s) at 2.23 ppm (Penicillium expansum; each component 2.23 ppm final, combinations 1:1 w/w) [%]	% of Growth of the Given Compound(s) at 2.23 ppm (Geotrichum candidum; natamycin series, each component 2.23 ppm final) [%]	% of Growth of the Given Compound(s) at 2.23 ppm ([1]; natamycin series) [%]	% of Growth of the Given Compound(s) at 1.12 ppm (Saccharomyces cerevisiae; natamycin series, each component 1.12 ppm final, 30° C. overnight) [%]
C[C@@H]1[C@H](O)[C@@H](C)/C=C/C=C/CC/C=C/C=C/C=C/C=C/C(O[C@H]2O[C@H](C)[C@@H](O)[C@H](N)[C@@H]2O)CC2O[C@](O)(CC(O)C(O)CCC(O)CC(O)CC(O)CC(=O)O[C@H]1C)CC(O)C2C(=O)O (stereo partly shown) [Nystatin, nystatin]	96.2	30.5	96.5							
C[C@@H]1C/C=C/C=C/C=C/C=C/[C@H](O[C@@H]2O[C@H](C)[C@@H](O)[C@H](N)[C@@H]2O)C[C@@H]2O[C@](O)(C[C@@H](O)C[C@H]3O[C@@H]3/C=C/C(=O)O1)C[C@H](O)[C@H]2C(=O)O [Natamycin, natamycin]				22.1	77.89	102	35.38	110.4	57.4	97.4
